Here are results for 16 molecules from PubChem BioAssay (NCI).

Some test systems named below: NCI-H23 lung; TK-10 renal; 786-0 renal; SW-620 colon; OVCAR-4 ovarian; MOLT-4 leukemia; SNB-75 CNS; COLO 205 colon; SK-MEL-5 melanoma.
Holding throughout (assay): NCI anticancer screen, dose series, 48 h

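Tested at 5 concentrations; 48 h exposure; 96-well plates; endpoints linearly interpolated, else capped at highest concentration. Abbreviation: GI50, concentration required for 50% inhibition of growth. TGI marks complete inhibition of growth.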

As to `CCCSC1=N/C(=C\c2ccco2)C(=O)N1`, the TGI in the test with NCI-H23 lung, in the test on TK-10 renal, in the test on 786-0 renal, with SW-620 colon, in the test on OVCAR-4 ovarian and in the test on MOLT-4 leukemia was above 100 µM throughout. For the same molecule, the TGI in the test on SNB-75 CNS and in the test on COLO 205 colon was above 100 µM throughout.

Regarding `CO[C@@H](c1ccccc1)[C@H](O)[C@@](O)(c1ccccc1)P(=O)(OC)OC`, the TGI with SK-MEL-5 melanoma, in the test with NCI-H23 lung, in the test with TK-10 renal, in the test on 786-0 renal, in the test on SW-620 colon and in the test with MOLT-4 leukemia was above 100 µM throughout. For the same molecule, the TGI in the test with SNB-75 CNS and in the test with COLO 205 colon was above 100 µM throughout.

`CNc1nc(OC)c2c(n1)[n+](C)cn2C`: the TGI in the test with SK-MEL-5 melanoma, with NCI-H23 lung, in the test with TK-10 renal, with 786-0 renal, with SW-620 colon and with MOLT-4 leukemia was above 100 µM throughout. Moreover, the TGI in the test on SNB-75 CNS and with COLO 205 colon was above 100 µM in each case.

As for `CN(C)c1ccc(/C=C2\CCCCCC2=O)cc1`, the TGI with SK-MEL-5 melanoma, in the test with TK-10 renal, in the test on 786-0 renal, with SW-620 colon, in the test on MOLT-4 leukemia and in the test on SNB-75 CNS was above 100 µM each time. In the test with COLO 205 colon, the TGI was above 100 µM.

As for `N#Cc1c(N)n(-c2nc3ccccc3s2)c(=O)c2cc([N+](=O)[O-])ccc12`, the TGI in the test on NCI-H23 lung is 36.5 µM; with TK-10 renal it was above 100 µM; in the test with 786-0 renal it was above 66.3 µM; with SW-620 colon it was above 100 µM; in the test with OVCAR-4 ovarian it was above 100 µM; with MOLT-4 leukemia it was 19.9 µM. Further, in the test with SNB-75 CNS, the TGI is above 48.3 µM.

On to `O=CC12CCCN1CCC2`, for which the TGI in the test on SK-MEL-5 melanoma, in the test on NCI-H23 lung, in the test with TK-10 renal, in the test with 786-0 renal, with SW-620 colon and in the test with OVCAR-4 ovarian was above 100 µM in each case. For the same molecule, the TGI in the test with MOLT-4 leukemia and in the test on COLO 205 colon was above 100 µM in each case.

As for `CC(C)(C)OC(=O)NCCCCC1NC(=O)[C@@H]2Cc3c([nH]c4ccccc34)C(c3ccccc3)N2C1=O` (stereo partly drawn), the TGI was 97.8 µM in the test with SK-MEL-5 melanoma; above 100 µM in the test on NCI-H23 lung; above 100 µM with TK-10 renal; 82.3 µM with 786-0 renal; above 100 µM in the test with SW-620 colon; above 100 µM with OVCAR-4 ovarian. The values for the TGI in the test on MOLT-4 leukemia and in the test on COLO 205 colon were 60.2 µM and 46.9 µM, respectively.

With `Cc1ccc(C(=O)C2CC3(CCC2(O)c2ccc(C)cc2)CC(=O)Nc2ccccc2C3=O)cc1` (stereo not drawn), the TGI was 97.6 µM in the test on SK-MEL-5 melanoma; above 100 µM in the test with NCI-H23 lung; above 100 µM in the test on TK-10 renal; above 100 µM in the test with SW-620 colon; above 100 µM in the test with MOLT-4 leukemia; 93.5 µM in the test with SNB-75 CNS. Moreover, the TGI with COLO 205 colon was above 100 µM.

Take `CCCCCCCCCCCCCCCC(=O)OCC(COP(=O)(O)OCCNC(=O)CCSSc1ccccn1)OC(=O)CCCCCCCCCCCCCCC` (stereo not drawn): the TGI with SK-MEL-5 melanoma, in the test with NCI-H23 lung, in the test on 786-0 renal, with SW-620 colon, with OVCAR-4 ovarian and in the test with MOLT-4 leukemia was above 100 µM throughout. Moreover, the TGI with SNB-75 CNS and with COLO 205 colon was above 100 µM each time.

For the molecule `CCCCCNC(=O)OC1CCn2c1nc1c2C(=O)C(C)=C(N2CC2)C1=O` (stereo not drawn), the TGI was 1.73 µM in the test on SK-MEL-5 melanoma; 6.2 µM in the test on NCI-H23 lung; 12.5 µM in the test with TK-10 renal; 1.75 µM with 786-0 renal; 4.98 µM in the test with OVCAR-4 ovarian; 43.8 µM with MOLT-4 leukemia. The TGI in the test on SNB-75 CNS was determined as 2.69 µM; with COLO 205 colon it was 2.82 µM.

As for `Nc1nc2c(c(-c3ccc(F)cc3)n1)COC/C2=C\c1ccc(F)cc1`, the TGI in the test with SK-MEL-5 melanoma, with NCI-H23 lung, in the test on TK-10 renal, in the test on SW-620 colon, with OVCAR-4 ovarian and in the test with MOLT-4 leukemia was above 100 µM throughout. The TGI is 83.1 µM in the test on SNB-75 CNS and above 100 µM in the test on COLO 205 colon.

For the molecule `O=C1Cc2c([nH]c3c(Br)cccc23)-c2ccccc2N1`, the TGI is above 100 µM in the test on SK-MEL-5 melanoma; above 100 µM in the test with NCI-H23 lung; above 100 µM with 786-0 renal; above 100 µM with SW-620 colon; 43.6 µM with MOLT-4 leukemia; above 100 µM in the test with SNB-75 CNS. This molecule showed a TGI with COLO 205 colon above 100 µM.

With `Cc1cc(N(CCCl)CCCl)ccc1/C=N\NC(=O)c1cccnc1`, the GI50 in the test with SK-MEL-5 melanoma is 15.7 µM; in the test on NCI-H23 lung, 18.4 µM; with TK-10 renal it was 11.2 µM; with SW-620 colon, 30.3 µM; with MOLT-4 leukemia, 8.19 µM; in the test with SNB-75 CNS, 25.5 µM. Besides, the GI50 in the test with COLO 205 colon is 19.1 µM. In addition, the TGI was 39.1 µM in the test on SK-MEL-5 melanoma; above 100 µM in the test on NCI-H23 lung; 36.2 µM in the test with TK-10 renal; above 100 µM in the test on SW-620 colon; 39.2 µM with MOLT-4 leukemia; above 100 µM with SNB-75 CNS. Besides, in the test on COLO 205 colon, the TGI is 85.3 µM.

`O=C(NCc1ccc(Cl)c(Cl)c1)c1nc2ccccc2nc1NCc1ccc(Cl)c(Cl)c1`: the TGI with SK-MEL-5 melanoma, in the test on NCI-H23 lung, with TK-10 renal, with 786-0 renal, in the test on SW-620 colon and with SNB-75 CNS was above 100 µM throughout. In addition, in the test on COLO 205 colon, the TGI was above 100 µM.

Take `CCN(CCCl)c1ccc(NC(=O)c2cc(C(=O)NCCN(C)C)cc(C(=O)Nc3ccc(N(CC)CCCl)cc3)c2)cc1`: the TGI in the test on SK-MEL-5 melanoma came out at 30.7 µM; in the test with NCI-H23 lung it was 23.5 µM; with TK-10 renal, 38 µM; in the test on 786-0 renal, 3.12 µM; in the test with SW-620 colon, 18 µM; in the test on OVCAR-4 ovarian, 43.5 µM. Besides, the TGI turned out to be 5.99 µM in the test on MOLT-4 leukemia and 69.6 µM in the test on SNB-75 CNS.

With `O=C(C[N+]1(c2ccccc2)CCOCC1)c1ccccc1`, the TGI in the test on SK-MEL-5 melanoma, with NCI-H23 lung, in the test with TK-10 renal, in the test with 786-0 renal, in the test on OVCAR-4 ovarian and with MOLT-4 leukemia was above 100 µM throughout. In addition, in the test with SNB-75 CNS, the TGI is above 100 µM.
